Measured values as given in patent US20220306695A1, “COMPSTATIN ANALOGUES AND THEIR MEDICAL USES” (priority 2019, published 2022).
Positions of bridges follow the written chain, without caps; N, C: chain ends. Non-standard residues stand in square brackets, D forms with d. Residues, ends and D or L forms follow the SMILES beside them. *: point of attachment. Trp(1-Me) = Cn1cc(C[C@H](N)C(=O)O)c2ccccc21; C18 diacid = O=C(O)CCCCCCCCCCCCCCCCC(=O)*; Sar = CNCC(=O)O

Legend:
[1] = system: classical complement pathway; assay: In vitro haemolysis assay (inhibition of classical complement pathway); format: cell-based, human; conditions: Table 3; human serum, sensitized sheep red blood cells; read-out: IC50[nM], in vitro analysis of inhibition of hemolysis
Summary of the method: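 Serially diluted compound (9 points) was preincubated 15 min at room temperature with diluted human serum, titrated per batch to give 70-90% maximal haemolysis, in Tris/casein buffer pH 7.4 with Mg2+/Ca2+. Antibody-sensitized sheep erythrocytes were then added for 30 min at 37° C, and the reaction was stopped with EDTA. Haemolysis was read at A405, with IC50 from 4PL fit.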

[2] = Solubility test at 10 mg/mL (visual inspection and light scattering); format: physicochemical; conditions: for Solubility, Condition 1 Acetate pH 4: 10 mg/mL compound in 100 mM acetate pH 4; for Solubility, Condition 2 Acetate pH 5: 10 mg/mL compound in 100 mM acetate pH 5; for Solubility, Condition 3 Phosphate pH 6: 10 mg/mL compound in 100 mM phosphate pH 6; for Solubility, Condition 4 Phosphate pH 7: 10 mg/mL compound in 100 mM phosphate pH 7; for Solubility, Condition 5 Phosphate pH 7.5: 10 mg/mL compound in 100 mM phosphate pH 7.5

Row | Compound | IC50 [1] [nM] | Solubility, Condition 1 Acetate pH 4 [2] | Solubility, Condition 2 Acetate pH 5 [2] | Solubility, Condition 3 Phosphate pH 6 [2] | Solubility, Condition 4 Phosphate pH 7 [2] | Solubility, Condition 5 Phosphate pH 7.5 [2]
1 | CC[C@H](C)[C@@H]1NC(=O)[C@@H](NC(=O)[C@H](Cc2ccccc2)NC(=O)[C@H](C)NC(=O)[C@H](CO)NC(=O)CNC(=O)[C@H](CCC(=O)O)NC(C)=O)CSSC[C@@H](C(=O)N[C@H](C(=O)N[C@@H](CCC(=O)O)C(N)=O)[C@@H](C)O)NC(=O)[C@H](CCCNC(=N)N)NC(=O)[C@H](Cc2c[nH]cn2)NC(=O)[C@H](CCC(=O)O)NC(=O)CNC(=O)[C@H](Cc2c[nH]c3ccccc23)NC(=O)[C@H](CC(=O)O)NC(=O)[C@H](CCC(N)=O)NC(=O)[C@H](Cc2cn(C)c3ccccc23)NC1=O [Compound 57] (Ac-EGSAFCI[Trp(1-Me)]QDWGEHRCTE-NH2; disulfide 6-16) | < 100 | − (denotes lack of solubility at the given condition, as UV absorbance at 340 nm exceeds 0.1 AU and/or it is visibly turbid or contains particles.) | − (denotes lack of solubility at the given condition, as UV absorbance at 340 nm exceeds 0.1 AU and/or it is visibly turbid or contains particles.) | + (denotes solubility at the given condition, as determined by UV absorbance being less than 0.1 AU at 340 nm and the sample being clear when manually inspected.) | + (denotes solubility at the given condition, as determined by UV absorbance being less than 0.1 AU at 340 nm and the sample being clear when manually inspected.) | + (denotes solubility at the given condition, as determined by UV absorbance being less than 0.1 AU at 340 nm and the sample being clear when manually inspected.)
2 | CC[C@H](C)[C@@H]1NC(=O)[C@@H](NC(=O)[C@H](Cc2ccc(O)cc2)NC(=O)[C@H](CCC(=O)O)NC(=O)[C@H](CO)NC(=O)CNC(=O)[C@H](CCC(=O)O)NC(=O)CCCCCCCCCCCCCCCCC(=O)O)CSSC[C@@H](C(=O)N(C)CC(=O)N[C@@H](CCC(=O)O)C(N)=O)NC(=O)[C@H](CCCNC(=N)N)NC(=O)[C@H](Cc2c[nH]cn2)NC(=O)[C@H](CCC(=O)O)NC(=O)CNC(=O)[C@H](Cc2c[nH]c3ccccc23)NC(=O)[C@H](CC(=O)O)NC(=O)[C@H](CCC(N)=O)NC(=O)[C@H](Cc2cn(C)c3ccccc23)NC1=O [Compound 108] ({C18 diacid}-EGSEYCI[Trp(1-Me)]QDWGEHRC[Sar]E-NH2; disulfide 6-16) | < 500 | − (denotes lack of solubility at the given condition, as UV absorbance at 340 nm exceeds 0.1 AU and/or it is visibly turbid or contains particles.) | − (denotes lack of solubility at the given condition, as UV absorbance at 340 nm exceeds 0.1 AU and/or it is visibly turbid or contains particles.) | + (denotes solubility at the given condition, as determined by UV absorbance being less than 0.1 AU at 340 nm and the sample being clear when manually inspected.) | + (denotes solubility at the given condition, as determined by UV absorbance being less than 0.1 AU at 340 nm and the sample being clear when manually inspected.) | + (denotes solubility at the given condition, as determined by UV absorbance being less than 0.1 AU at 340 nm and the sample being clear when manually inspected.)
3 | CC[C@H](C)[C@@H]1NC(=O)[C@@H](NC(=O)[C@@H](NC(=O)[C@H](CCC(=O)O)NC(C)=O)[C@@H](C)CC)CSSC[C@@H](C(=O)N[C@H](C(=O)N[C@@H](CCC(=O)O)C(N)=O)[C@@H](C)O)NC(=O)[C@H](CCCNC(=N)N)NC(=O)[C@H](Cc2c[nH]cn2)NC(=O)[C@H](CCC(=O)O)NC(=O)CNC(=O)[C@H](Cc2c[nH]c3ccccc23)NC(=O)[C@H](CC(=O)O)NC(=O)[C@H](CCC(N)=O)NC(=O)[C@H](Cc2c[nH]c3ccccc23)NC1=O [Compound 33] (Ac-EICIWQDWGEHRCTE-NH2; disulfide 3-13) | < 100 | − (denotes lack of solubility at the given condition, as UV absorbance at 340 nm exceeds 0.1 AU and/or it is visibly turbid or contains particles.) | − (denotes lack of solubility at the given condition, as UV absorbance at 340 nm exceeds 0.1 AU and/or it is visibly turbid or contains particles.) | + (denotes solubility at the given condition, as determined by UV absorbance being less than 0.1 AU at 340 nm and the sample being clear when manually inspected.) | + (denotes solubility at the given condition, as determined by UV absorbance being less than 0.1 AU at 340 nm and the sample being clear when manually inspected.) | + (denotes solubility at the given condition, as determined by UV absorbance being less than 0.1 AU at 340 nm and the sample being clear when manually inspected.)
4 | CC[C@H](C)[C@@H]1NC(=O)[C@@H](NC(=O)[C@H](Cc2ccccc2)NC(=O)[C@H](C)NC(=O)[C@H](CO)NC(=O)CNC(=O)[C@H](CCC(=O)O)NC(C)=O)CSSC[C@@H](C(=O)N(C)CC(=O)N[C@@H](CCC(=O)O)C(N)=O)NC(=O)[C@H](CCCNC(=N)N)NC(=O)[C@H](Cc2c[nH]cn2)NC(=O)[C@H](CCC(=O)O)NC(=O)CNC(=O)[C@H](Cc2c[nH]c3ccccc23)NC(=O)[C@H](CC(=O)O)NC(=O)[C@H](CCC(N)=O)NC(=O)[C@H](Cc2c[nH]c3ccccc23)NC1=O [Compound 45] (Ac-EGSAFCIWQDWGEHRC[Sar]E-NH2; disulfide 6-16) | < 100 | − (denotes lack of solubility at the given condition, as UV absorbance at 340 nm exceeds 0.1 AU and/or it is visibly turbid or contains particles.) | + (denotes solubility at the given condition, as determined by UV absorbance being less than 0.1 AU at 340 nm and the sample being clear when manually inspected.) | + (denotes solubility at the given condition, as determined by UV absorbance being less than 0.1 AU at 340 nm and the sample being clear when manually inspected.) | + (denotes solubility at the given condition, as determined by UV absorbance being less than 0.1 AU at 340 nm and the sample being clear when manually inspected.) | + (denotes solubility at the given condition, as determined by UV absorbance being less than 0.1 AU at 340 nm and the sample being clear when manually inspected.)
5 | CC[C@H](C)[C@@H]1NC(=O)[C@@H](NC(=O)[C@H](Cc2ccc(O)cc2)NC(C)=O)CSSC[C@@H](C(=O)N[C@H](C(=O)N[C@@H](CCC(=O)O)C(=O)N[C@@H](C)C(=O)NCC(=O)N[C@@H](CO)C(N)=O)[C@@H](C)O)NC(=O)[C@H](CCCNC(=N)N)NC(=O)[C@H](Cc2c[nH]cn2)NC(=O)[C@H](CCC(=O)O)NC(=O)CNC(=O)[C@H](Cc2c[nH]c3ccccc23)NC(=O)[C@H](CC(=O)O)NC(=O)[C@H](CCC(N)=O)NC(=O)[C@H](Cc2cn(C)c3ccccc23)NC1=O [Compound 68] (Ac-YCI[Trp(1-Me)]QDWGEHRCTEAGS-NH2; disulfide 2-12) | < 100 | − (denotes lack of solubility at the given condition, as UV absorbance at 340 nm exceeds 0.1 AU and/or it is visibly turbid or contains particles.) | − (denotes lack of solubility at the given condition, as UV absorbance at 340 nm exceeds 0.1 AU and/or it is visibly turbid or contains particles.) | + (denotes solubility at the given condition, as determined by UV absorbance being less than 0.1 AU at 340 nm and the sample being clear when manually inspected.) | + (denotes solubility at the given condition, as determined by UV absorbance being less than 0.1 AU at 340 nm and the sample being clear when manually inspected.) | + (denotes solubility at the given condition, as determined by UV absorbance being less than 0.1 AU at 340 nm and the sample being clear when manually inspected.)
6 | CC[C@H](C)[C@@H]1NC(=O)[C@@H](NC(=O)[C@H](Cc2ccccc2)NC(=O)[C@H](CCC(=O)O)NC(=O)[C@H](CO)NC(C)=O)CSSC[C@@H](C(=O)N(C)CC(=O)N[C@@H](CCC(=O)O)C(=O)N[C@@H](C)C(N)=O)NC(=O)[C@H](CCCNC(=N)N)NC(=O)[C@H](Cc2c[nH]cn2)NC(=O)[C@H](CCC(=O)O)NC(=O)CN(C)C(=O)[C@H](Cc2c[nH]c3ccccc23)NC(=O)[C@H](CC(=O)O)NC(=O)[C@H](CCC(N)=O)NC(=O)[C@H](Cc2cn(C)c3ccccc23)NC1=O [Compound 76, Ac-SEFC(1)I[1-Me-Trp]QDW[SarlEHRC(1)[Sar]EA-NH2] (Ac-SEFCI[Trp(1-Me)]QDW[Sar]EHRC[Sar]EA-NH2; disulfide 4-14) | < 100 | − (denotes lack of solubility at the given condition, as UV absorbance at 340 nm exceeds 0.1 AU and/or it is visibly turbid or contains particles.) | − (denotes lack of solubility at the given condition, as UV absorbance at 340 nm exceeds 0.1 AU and/or it is visibly turbid or contains particles.) | + (denotes solubility at the given condition, as determined by UV absorbance being less than 0.1 AU at 340 nm and the sample being clear when manually inspected.) | + (denotes solubility at the given condition, as determined by UV absorbance being less than 0.1 AU at 340 nm and the sample being clear when manually inspected.) | + (denotes solubility at the given condition, as determined by UV absorbance being less than 0.1 AU at 340 nm and the sample being clear when manually inspected.)
